Source: PubChem BioAssay AID1996
≈ marks a conversion by molar mass, not a printed value.

Conditions: buffer; pH 7.4; 200.0 µM

Row | Compound | solubility kinetic
1 | COc1ccc(C)cc1NC(=O)NC1CCCCCCC1 | < 0.3 µg/mL
2 | CC(C)[C@H](NC(=O)c1ccccc1)C(=O)OCC(=O)Nc1sccc1C(N)=O | 19 µg/mL (≈ 47.1 µM)
3 | Cc1cc(C)n2nc(SCC(=O)NC3CCCCC3)nc2n1 | > 47.9 µg/mL
4 | CC(C)CN(C(=O)CCNC(=O)c1ccc(Cl)cc1)C1CCS(=O)(=O)C1 (centres undefined) | > 60.1 µg/mL
5 | O=C1NCC(COc2ccc([N+](=O)[O-])cc2)O1 (centres undefined) | 34.1 µg/mL (≈ 143 µM)
6 | Cc1nnc(SCC(=O)NC2CCCCC2)n1N | > 40.4 µg/mL
7 | Cn1c(/C=C/c2ccc(Cl)cc2)nc2ccccc2c1=O | < 0.3 µg/mL
8 | CC1(C)Cc2nc3scc(NC(=O)c4ccccc4)c3cc2CO1 | 5.9 µg/mL (≈ 17.4 µM)
9 | COc1cccc(CN2CCN(Cc3cccc(F)c3)CC2)c1.O=C(O)C(=O)O | 46.5 µg/mL
10 | CCOc1ccccc1N1CCN(C(=O)c2cccs2)CC1 | 45.7 µg/mL (≈ 144 µM)
11 | Cc1cnc(C(=O)OCC(=O)Nc2ccc(Cl)cn2)cn1 | > 46 µg/mL
12 | CCOC(=O)c1csc(NC(=O)c2cc3ccccc3o2)n1 | 0.8 µg/mL (≈ 2.53 µM)
13 | Cn1cccc1C1C(C#N)=C(N)OC2=C1C(=O)CCC2 (centres undefined) | > 40.4 µg/mL
14 | S=C(c1ccccc1)N1CCCC1 | > 28.7 µg/mL
15 | Cc1ccc(Cl)cc1NC(=O)CON=C(N)c1ccccc1 | 32.4 µg/mL (≈ 102 µM)
16 | CNC(=S)N(CCO)Cc1cc2cc3c(cc2[nH]c1=O)OCO3 | 19.6 µg/mL (≈ 58.4 µM)
17 | CCc1c(C)c(C#N)c2nc3ccccc3n2c1NC | 1.3 µg/mL (≈ 4.92 µM)
18 | N#Cc1ccc(N2CCCNCC2)nc1 | > 30.3 µg/mL
19 | O=[N+]([O-])c1ccc(Cl)c(C[n+]2cccc3ccccc32)c1.[Br-] | 56.9 µg/mL
20 | Cc1ccc(-c2cc(C(=O)N3CCOCC3)c3ccccc3n2)o1 | > 48.4 µg/mL
21 | O=S(=O)(Nc1ccccc1N1CCOCC1)c1ccccc1C(F)(F)F | 7.3 µg/mL (≈ 18.9 µM)

Row | Compound | solubility kinetic
22 | Cc1cccc(/C(N)=N/OC(=O)CCCc2ccccc2)c1 | 1.8 µg/mL (≈ 6.07 µM)
23 | CSc1nc2c(cc1C#N)C(=O)CC(C)(C)C2 | 10.3 µg/mL (≈ 41.8 µM)
24 | C/C(=N\NC(=O)c1ccncc1)c1cccnc1 | > 36 µg/mL
25 | CN(CC(=O)Nc1ccccc1Cl)CC(=O)N(C)c1c(N)n(Cc2ccccc2)c(=O)[nH]c1=O | 65.2 µg/mL (≈ 134 µM)
26 | CCCN1CCN(C(=O)c2oc3c(Cl)cccc3c2C)CC1 | 35.7 µg/mL (≈ 111 µM)
27 | CC(C)(C)c1ccc(C(=O)NCCCNC(=O)c2ccccn2)cc1 | > 50.9 µg/mL
28 | Cc1cc(NC(=O)C(C)Oc2ccccc2)no1 (centres undefined) | > 36.9 µg/mL
29 | O=C(Nc1ccc(-c2ccc([N+](=O)[O-])cc2)cc1)c1ccccc1F | < 0.4 µg/mL
30 | CCCNC(=O)C(=O)Nc1cc2c3c(c1)CCC(=O)N3CCC2 | > 47.3 µg/mL
31 | COc1cccc(/C=N/NC(=O)CNC(=O)COc2ccccc2)c1O | > 53.6 µg/mL
32 | N#Cc1ccc(OCC(=O)Nc2ccc(S(=O)(=O)N3CCOCC3)cc2)cc1 | 5.5 µg/mL (≈ 13.7 µM)
33 | CC[n+]1ccc(/C=C/c2c[nH]c3ccccc23)cc1.[Cl-] | 32.8 µg/mL
34 | CNc1cc(Cl)nc(SC)n1 | > 28.4 µg/mL
35 | COc1ccc(N2CCOCC2)c(NC(=O)c2cccnc2)c1 | > 47 µg/mL
36 | CCC(=O)Nc1ccc(/C=C(\C(C)=O)C(=O)c2ccccc2)cc1 | > 48.2 µg/mL
37 | CCN1C(=O)C(=O)N(CC(=O)Nc2cccc(C(F)(F)F)c2)C1=O | > 51.5 µg/mL
38 | Cc1cccc(C(=O)NCC(=O)OCC(=O)NC2CCCCC2)c1 | > 49.9 µg/mL
39 | COc1ccc(NS(=O)(=O)c2ccc(N3CCCC3)c(NC(=S)Nc3cccc(C)c3C)c2)cc1 | 7.6 µg/mL (≈ 14.9 µM)
40 | O=Cc1c(N2CCC3(CC2)OCCO3)nc2ccccn2c1=O | > 47.3 µg/mL
41 | O=C(O)C(=O)O.O=C(c1ccco1)N1CCN(Cc2ccccc2F)CC1 | 33.9 µg/mL
42 | O=C(NC1CC1)c1sc2cc(Cl)ccc2c1Cl | 1.2 µg/mL (≈ 4.19 µM)

Row | Compound | solubility kinetic
43 | O=C(NCCNC(=O)c1ccco1)c1ccc(F)cc1 | > 41.4 µg/mL
44 | Cc1ccc(C(=O)Nc2ncc([N+](=O)[O-])s2)cc1 | 27 µg/mL (≈ 103 µM)
45 | Cc1cccc(C(=O)NCCNC(=O)c2cnccn2)c1 | 38.5 µg/mL (≈ 135 µM)
46 | NS(=O)(=O)c1ccc(NC(=O)c2c(F)cccc2Cl)cc1 | 13.3 µg/mL (≈ 40.5 µM)
47 | COc1ccc(-c2nc(N)nc(C(F)(F)F)c2-c2csc(C)n2)c(O)c1 | 2.6 µg/mL (≈ 6.8 µM)
48 | O=Cc1c[nH]c2cccc(OCc3ccccc3)c12 | 4.6 µg/mL (≈ 18.3 µM)
49 | CCc1noc(C)c1C(=O)OCC(=O)NC(=O)c1ccccc1OC | 18.6 µg/mL (≈ 53.7 µM)
50 | O=C(Cc1cccc2ccccc12)Nc1ccc(N2CCOCC2)cc1 | 1.7 µg/mL (≈ 4.91 µM)
51 | Cc1cc(C)nc(Nc2cccc(C(F)(F)F)c2)n1.Cl | 1.8 µg/mL
52 | COc1ccccc1CNC(=O)CS(=O)(=O)c1ccccc1 | 44 µg/mL (≈ 138 µM)
53 | COC(=O)C(Cc1ccccc1)NC(=O)CCc1c[nH]c2ccccc12 (centres undefined) | > 52.6 µg/mL
54 | COc1cc2c(cc1OC)C(NC(=O)C(F)(F)F)C/C2=N\O (centres undefined) | > 47.7 µg/mL
55 | Nc1nc(SCC(=O)Nc2ccc([N+](=O)[O-])cc2)n[nH]1 | > 44.1 µg/mL
56 | CNC(=O)c1ccc(NC(=O)/C=C/c2cccc(F)c2)cc1 | 1.4 µg/mL (≈ 4.69 µM)
57 | CCc1cccc(NC(=S)N(CCOC)C(C)c2ccco2)c1 (centres undefined) | 7.9 µg/mL (≈ 23.8 µM)
58 | O=C(Nc1c(C(=O)O)[nH]c2ccccc12)c1cccc(C(F)(F)F)c1 | > 52.2 µg/mL
59 | O=C(Nc1ccccc1)Nc1ccc2ccccc2c1 | < 0.3 µg/mL
60 | O=C(CN1C(=O)c2cccc3cccc(c23)C1=O)N1CCOCC1 | > 48.7 µg/mL
61 | O=C(NC1CCCCC1)C(=S)NCCc1ccccc1 | 1.4 µg/mL (≈ 4.82 µM)
62 | CCC(=O)NCCc1nc2cc(NC(=O)c3ccco3)ccc2n1C | 48 µg/mL (≈ 141 µM)
63 | COC(=O)c1ccc(C(=O)O)nc1 | 21.5 µg/mL (≈ 119 µM)

Row | Compound | solubility kinetic
64 | Cc1ccc(S(=O)(=O)NCCc2ccncc2)cc1C | > 43.6 µg/mL
65 | CCOC(=O)c1c(C)[nH]c(C)c1C(=O)COC(=O)c1cccnc1Cl | > 54.7 µg/mL
66 | O=C(CC1NCCNC1=O)Nc1ccccc1 (centres undefined) | > 35 µg/mL
67 | CCCCS(=O)(=O)N1CCCC(C(=O)Oc2ccc(Cl)cc2)C1 (centres undefined) | < 0.8 µg/mL
68 | CCOC(=O)Cn1cc(C#N)c2ccccc21 | > 34.2 µg/mL
69 | COc1cc(CC(=O)NCCCc2ccccc2)cc(OC)c1OC | > 51.5 µg/mL
70 | O=[N+]([O-])c1ccccc1CN1CCN(Cc2ccc3ccccc3c2)CC1 | 3.9 µg/mL (≈ 10.8 µM)
71 | CCC(C)NC(=O)C1c2ccccc2C(=O)N1Cc1ccccc1 (centres undefined) | 38.4 µg/mL (≈ 119 µM)
72 | CC(=O)Nc1ccccc1C(=O)OCC(=O)Nc1ncccn1 | > 47.1 µg/mL
73 | CC1CN(S(=O)(=O)c2ccc(C(=O)O)cc2)CC(C)O1 (centres undefined) | > 44.9 µg/mL
74 | COc1ccc(NC(=O)c2cc(S(=O)(=O)N3CCOCC3)ccc2C)cc1S(=O)(=O)N1CCOCC1 | > 80.9 µg/mL
75 | Cc1sc2ncnc(SCC(=O)N3CCOCC3)c2c1C | 39.3 µg/mL (≈ 122 µM)
76 | Clc1ccc2c(NCc3ccccn3)ccnc2c1 | > 40.5 µg/mL
77 | Cc1ccc2cccc(OCC(=O)N3CCc4ccccc43)c2n1 | < 0.3 µg/mL
78 | Cc1onc(-c2ccccc2)c1C(=O)OCC(=O)N(C)c1ccccc1 | 39.2 µg/mL (≈ 112 µM)
79 | CC(C)CNc1nc(N)c([N+](=O)[O-])c(NC2CCCCC2)n1 | < 0.1 µg/mL
80 | Cl.Fc1ccc(CNCc2ccc3c(c2)OCO3)cc1 | > 44.4 µg/mL
81 | Cc1ccc2[nH]c(C(=O)NCCN3CCCC3)cc2c1.Cl | > 46.2 µg/mL
82 | COc1ccc(NC(=O)CCCn2cnc3ccccc3c2=O)cc1 | > 50.6 µg/mL
83 | CC(=O)Nc1ccc(S(=O)(=O)NC(C(=O)O)C(C)O)cc1 (centres undefined) | > 47.4 µg/mL
84 | COC(=O)C1=C(C)N(Cc2ccccc2)C(=O)/C1=C\c1ccco1 | 3.7 µg/mL (≈ 11.4 µM)
